In series [1] the target is B-Raf (Homo sapiens, UniProt P15056). The series can be described thus: B-Raf biochemical kinase inhibition (AlphaScreen, biotin-MEK1 substrate). The settings on record: 100 μM ATP. The protocol:
(§1) Compounds to be tested are diluted in dimethyl sulfoxide to a concentration of 0.1 mM. These are serially diluted 15 μL into 30 μL of dimethyl sulfoxide seven times in 96 well plates for a total of 8 dilution points, and for each dilution point 1 μL is added to a well of an assay plate. […] The reaction is started with addition of 10 μL of 200 μM ATP (i.e. final 100 μM ATP). […] The plates are incubated for 3 hours at room temperature and read on Envision reader (Perkin Elmer). […] The signal vs. compound concentration is used to determine the IC50.

The target of series [2] is B-Raf V600E (Homo sapiens, UniProt P15056, V600E). The series can be described thus: B-Raf V600E biochemical kinase inhibition (AlphaScreen, biotin-MEK1 substrate). To be noted: 100 μM ATP. The method, then:
as §1

The target in series [3] is c-Raf-1 (Homo sapiens, UniProt P04049). Briefly: c-Raf-1 biochemical kinase inhibition (AlphaScreen, biotin-MEK1 substrate). To be noted: 100 μM ATP. The protocol:
as §1

Series [4] has as its target T1, CYP1A2 (Homo sapiens, UniProt P05177).
T1 sequence (P05177 1-516): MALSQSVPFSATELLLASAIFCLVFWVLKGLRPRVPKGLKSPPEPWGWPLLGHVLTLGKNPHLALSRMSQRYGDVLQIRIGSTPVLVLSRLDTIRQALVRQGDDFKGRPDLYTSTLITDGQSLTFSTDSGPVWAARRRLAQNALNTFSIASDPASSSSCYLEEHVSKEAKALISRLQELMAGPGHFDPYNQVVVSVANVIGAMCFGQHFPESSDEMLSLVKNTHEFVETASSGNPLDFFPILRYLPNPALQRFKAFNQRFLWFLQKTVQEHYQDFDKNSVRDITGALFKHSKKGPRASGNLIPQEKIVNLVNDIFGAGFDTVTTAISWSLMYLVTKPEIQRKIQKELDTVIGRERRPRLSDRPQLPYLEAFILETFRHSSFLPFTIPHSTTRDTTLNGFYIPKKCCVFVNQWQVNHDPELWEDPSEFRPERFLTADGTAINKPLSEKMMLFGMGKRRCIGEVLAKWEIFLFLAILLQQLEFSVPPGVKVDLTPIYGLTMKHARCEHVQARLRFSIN
The series can be described thus: CYP1A2 inhibition (fluorescent substrate). In kind it is in vitro ADME. To be noted: CYP1A2, CEC substrate; read-out: Cyp IC50 1A2. The protocol: (§2) CYP (Cytochrome P450) enzymes are the major drug metabolizing enzymes present in the liver. The inhibition of CYP enzyme activity (IC50) for each of CYP1A2, CYP2C19, CYP2C9, CYP2D6, CYP3A4(BFC) and CYP3A4(BQ) is determined for compounds, where inhibition of metabolism of a known substrate leads to a decrease in the fluorescence of the metabolized product. The fluorescence of the product is monitored as a function of compound concentration.
(§3) Compounds are dissolved in dimethyl sulfoxide to a concentration of 100 mM. These are diluted 1 μL into 82 μL of acetonitrile. […] These are then serially diluted 1:1 (160 μL to 160 μL co-factor mix) for a total of 10 points. A 10 μL aliquot of this final mixture is dispensed into 384 well assay plates and incubated for 10 minutes at 37° C. […] Assay plates are incubated at 37° C. […] The signal versus compound concentration is used to determine the IC50. The enzymes and substrates for this assay are obtained from BD Biosciences.

Series [5] concerns the target CYP2C19 (Homo sapiens, UniProt P33261). Briefly: CYP2C19 inhibition (fluorescent substrate). In kind it is in vitro ADME. To be noted: CYP2C19, CEC substrate; read-out: Cyp IC50 2C19. The method, then:
as §2, §3

Series [6] deals with CYP2C9 (Homo sapiens, UniProt P11712). Briefly: CYP2C9 inhibition (fluorescent substrate). To be noted: CYP2C9, MFC substrate; read-out: Cyp IC50 2C9. In kind it is in vitro ADME. The protocol:
as §2, §3

Series [7] addresses CYP2D6 (Homo sapiens, UniProt P10635). Briefly: CYP2D6 inhibition (fluorescent substrate). In kind it is in vitro ADME. The settings on record: CYP2D6, AMMC substrate; read-out: Cyp IC50 2D6. The method, then:
as §2, §3

Series [8] deals with CYP3A4(BFC) (Homo sapiens, UniProt P08684). Briefly: CYP3A4(BFC) inhibition (fluorescent substrate). To be noted: read-out: Cyp IC50 3A4(BFC). In kind it is in vitro ADME. The protocol:
as §3, with “CYP (Cytochrome P450) enzymes are the major drug metabolizing enzymes present in the liver. The inhibition of CYP enzyme activity (IC50) for each of CYP1A2, CYP2C19, CYP2C9, CYP2D6, CYP3A4(BFC) and CYP3A4(BQ) is determined for compounds, where inhibition of metabolism of a known substrate leads to a decrease in the fluorescence of the metabolized product. The fluorescence of the product is monitored as a function of compound concentration. Compounds” for “Compounds”

Series [9] addresses CYP3A4(BQ) (Homo sapiens, UniProt P08684). Briefly: CYP3A4(BQ) inhibition (fluorescent substrate). In kind it is in vitro ADME. The settings on record: read-out: Cyp IC50 3A4(BQ). The protocol:
as §3, with “CYP (Cytochrome P450) enzymes are the major drug metabolizing enzymes present in the liver. The inhibition of CYP enzyme activity (IC50) for each of CYP1A2, CYP2C19, CYP2C9, CYP2D6, CYP3A4(BFC) and CYP3A4(BQ) is determined for compounds, where inhibition of metabolism of a known substrate leads to a decrease in the fluorescence of the metabolized product. The fluorescence of the product is monitored as a function of compound concentration. Compounds” for “Compounds”

Series [10] deals with SW620 colon adenocarcinoma cells (wild-type B-RAF). Briefly: SW620 cell growth inhibition (ATPlite). In kind it is cell-based. The settings on record: Homo sapiens, SW-620, 72 h; SW620, 3 days incubation. The method, then:
(§4) Compounds are assessed in a variety of cell based assays. For example human cell lines with B-Raf V600E mutation (A375 melanoma, SKMEL3 melanoma, and COL0205 colon adenocarcinoma), as well as tumorigenic cell lines with wild-type B-RAF (SW620 colon adenocarcinoma) or with Ras mutations (SKMEL2 melanoma and IPC298 melanoma). Similar assays may be used to assess additional tumorigenic cell lines with Ras mutations, including, but not limited to, M202, M207, M243, M244, M296, S117, HCT116, HCT15, DLD1, MiaPaCa, A549, NCI-H23, NCI-H460, HOP62, MDA-MB231, Hs-578T, HL60, MOLT-4, and CCRF-CEM.
(§5) On day 1, cells are counted, then centrifuged in a conical tube for 5 minutes at 1000 rpm. The supernatant is removed and cells are re-suspended as follows: • SW620 (ATCC catalog #CCL-27): resuspend in Leibovitz's L-15 medium, 2 mM L-glutamine, 10% fetal bovine serum to 6×10^4 cells/mL. • A375 (ATCC catalog #CRL-1619): resuspend in Dulbecco's modified Eagle's medium, 4 mM L-glutamine, 4.5 g/L D-glucose, 10% fetal bovine serum to 6×10^4 cells/mL. • COL0205 (ATCC catalog #CCL-222): resuspend in RPMI 1640, 2 mM L-glutamine, 1.5 g/L sodium bicarbonate, 4.5 g/L D-glucose, 10 mM HEPES, 1.0 mM sodium pyruvate, 10% fetal bovine serum to 6×10^4 cells/mL. • SKMEL2 (ATCC catalog #HTB-68): resuspend in Minimum Eagle essential medium, 2 mM L-glutamine, 1.5 g/L sodium bicarbonate, 0.1 mM non-essential amino acids, 1.0 mM sodium pyruvate, 10% fetal bovine serum to 6×10^4 cells/mL. • SKMEL3 (ATCC catalog #HTB-69): resuspend in McCoy's 5A medium, 1.5 mM L-glutamine, 15% fetal bovine serum to 6×10^4 cells/mL. • IPC298 (DSMZ catalog #ACC 251): resuspend in RPMI 1640, 2 mM L-glutamine, 10% fetal bovine serum to 6×10^4 cells/mL.
(§6) The cells are plated, 50 μL in each well of a 96-well dish (Corning 3610) and incubated at 37° C. in 5% CO2 overnight, cells plated to a final concentration of cells as follows:
(§7) On day 2, compound at a maximum concentration of 5 mM is serially diluted 1:3 for a total of 8 point titration with DMSO as a control. A 1 μL aliquot of each dilution point and control is added to 249 μL growth media and 50 μL is added to a well containing cells, providing 10 μM compound at the maximum concentration point. The cells are incubated for 3 days at 37° C. in 5% CO2.
(§8) On day 5, ATPlite 1 step Luminescence Assay System (Perkin Elmer #6016739) is brought to room temperature along with the cell cultures. ATPlite is added 25 μL to each well, shake for 2 minutes, and the cells are incubated at room temperature for 10 minutes, then luminescence is read on Safire reader. The measured luminescence correlates directly with cell number, such that the reading as a function of compound concentration is used to determine the IC50 value.
(§9) It is understood that the results of these assays may vary as assay conditions are varied. Inhibition levels determined under the conditions described herein represent a relative activity for the compounds tested under the specific conditions employed. The cell based assays are likely to show variability due to the complexity of the system and the sensitivity thereof to any changes in the assay conditions. […] Results for compounds that are tested and show substantially no inhibition below the highest tested concentration are represented as “-” in the tables below. In some instances, the compounds were not tested in all of the assays, or assay results were not valid, as indicated by NA in the tables below.

In series [11] the test system is A375 melanoma cells (B-Raf V600E). The series can be described thus: A375 cell growth inhibition (ATPlite). In kind it is cell-based. The settings on record: Homo sapiens, A-375, 72 h; A375, 3 days incubation. The protocol: as §4, §5, §6, §7, §8, §9
Series [12] deals with SKMEL2 melanoma cells (Ras mutation). The series can be described thus: SKMEL2 cell growth inhibition (ATPlite). In kind it is cell-based. To be noted: Homo sapiens, SK-MEL-2, 72 h; SKMEL2, 3 days incubation. The method, then:
as §4, §5, §6
SKMEL2: 2,000 cells per well.
as §7, §8, §9

A short description of series [13]: Relative solubility by turbidity in aqueous buffers of varying pH. In kind it is physicochemical. The method, then: As an indication of relative solubility, the turbidity of compounds in aqueous solutions is assessed. To assess possible compound properties in different physiological compartments, such as stomach, intestine, and blood, a series of aqueous buffers with varying pH is used. Thus each compound is diluted into four different physiologically relevant buffers and solution turbidity is measured by spectrophotometry.
Compounds are dissolved at a concentration of 25 mM in dimethyl sulfoxide, then serially diluted 1:1 into a 96 well plate, diluting 10 times in pure dimethyl sulfoxide, with the final well of each row a dimethyl sulfoxide blank. In an assay plate, 99 μL of appropriate buffer is added to each well, and 1 μL of each sample dilution is added to the buffer, achieving a range of final total concentrations in aqueous solutions having different pH. The buffers used are Simulated Gastric Fluid (SGF-pH 1.5) 0.5M NaCl, pH 1.5; Simulated Intestinal fluid (SIF-pH 4.5 and pH 6.8) 0.05M NaH2PO4, pH 4.5 and 6.8; and Hepes Buffer (HEPES-pH 7.4) 10 mM HEPES, 150 mM NaCl, pH 7.4. Control compounds pyrene, estriol and propranolol HCl are also assessed. Plates are spun and then mixed for 1 minute, and the absorbance is read using a Tecan Safire II to read wavelengths in the visible range (490, 535, and 650 nm) at four locations per well, reflecting the degree of turbidity present. The average optical density for each wavelength in each well is graphed vs. compound concentration, and the concentration at which the curve crosses a threshold O.D. of 0.01 for each wavelength is reported as the endpoint turbidity assay result. The average of the three wavelengths is used to compare turbidity of compounds. Compounds are considered to have low solubility if the threshold concentration is <31.3 04, moderate solubility if the threshold concentration is 31.3 μM to 250 μM, and high solubility if the threshold concentration is >250 μM.

Molecules are shown by their SMILES. Some results are limits rather than exact numbers.

These results are taken from patent US8198273B2, “Compounds and methods for kinase modulation, and indications therefor” (Plexxikon Inc., priority 2009, dated 2012).

Sequence of B-Raf (P15056 whole entry): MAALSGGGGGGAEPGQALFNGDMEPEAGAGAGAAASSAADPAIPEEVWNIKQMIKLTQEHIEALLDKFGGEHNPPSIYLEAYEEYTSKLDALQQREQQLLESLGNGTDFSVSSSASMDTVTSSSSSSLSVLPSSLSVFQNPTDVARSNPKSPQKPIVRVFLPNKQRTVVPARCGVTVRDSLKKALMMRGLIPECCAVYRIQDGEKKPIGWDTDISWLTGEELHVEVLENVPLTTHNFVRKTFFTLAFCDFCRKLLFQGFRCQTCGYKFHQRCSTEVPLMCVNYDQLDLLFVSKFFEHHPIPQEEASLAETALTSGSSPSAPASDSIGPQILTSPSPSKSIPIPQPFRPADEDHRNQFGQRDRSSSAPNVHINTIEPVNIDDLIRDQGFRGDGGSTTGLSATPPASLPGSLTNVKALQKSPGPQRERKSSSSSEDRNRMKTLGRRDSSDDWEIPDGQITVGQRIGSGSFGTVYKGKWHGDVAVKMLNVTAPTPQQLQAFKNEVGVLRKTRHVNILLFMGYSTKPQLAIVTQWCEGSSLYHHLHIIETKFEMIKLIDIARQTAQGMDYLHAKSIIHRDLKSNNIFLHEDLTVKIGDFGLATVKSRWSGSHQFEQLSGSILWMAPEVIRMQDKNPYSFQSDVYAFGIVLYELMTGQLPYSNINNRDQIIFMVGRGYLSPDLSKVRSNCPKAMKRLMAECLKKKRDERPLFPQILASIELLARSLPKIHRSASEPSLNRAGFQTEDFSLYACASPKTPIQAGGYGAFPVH
Sequence of B-Raf V600E (P15056 whole entry V600E): as the sequence (P15056 whole entry) above, with V600E counted along it
Sequence of CYP2C9 (P11712 whole entry): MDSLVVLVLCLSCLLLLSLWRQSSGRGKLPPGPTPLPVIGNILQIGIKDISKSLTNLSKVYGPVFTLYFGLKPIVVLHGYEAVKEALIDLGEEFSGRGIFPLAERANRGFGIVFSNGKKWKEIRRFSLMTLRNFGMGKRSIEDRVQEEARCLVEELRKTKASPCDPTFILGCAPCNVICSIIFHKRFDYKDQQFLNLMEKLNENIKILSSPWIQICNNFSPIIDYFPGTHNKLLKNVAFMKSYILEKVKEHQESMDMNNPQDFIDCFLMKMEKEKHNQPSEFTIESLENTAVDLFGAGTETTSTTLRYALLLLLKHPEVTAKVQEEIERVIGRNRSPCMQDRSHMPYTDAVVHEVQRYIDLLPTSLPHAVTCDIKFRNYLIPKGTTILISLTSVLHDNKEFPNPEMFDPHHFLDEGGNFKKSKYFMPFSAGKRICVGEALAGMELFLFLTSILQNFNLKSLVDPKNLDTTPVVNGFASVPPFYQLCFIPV
Sequence of c-Raf-1 (P04049 whole entry): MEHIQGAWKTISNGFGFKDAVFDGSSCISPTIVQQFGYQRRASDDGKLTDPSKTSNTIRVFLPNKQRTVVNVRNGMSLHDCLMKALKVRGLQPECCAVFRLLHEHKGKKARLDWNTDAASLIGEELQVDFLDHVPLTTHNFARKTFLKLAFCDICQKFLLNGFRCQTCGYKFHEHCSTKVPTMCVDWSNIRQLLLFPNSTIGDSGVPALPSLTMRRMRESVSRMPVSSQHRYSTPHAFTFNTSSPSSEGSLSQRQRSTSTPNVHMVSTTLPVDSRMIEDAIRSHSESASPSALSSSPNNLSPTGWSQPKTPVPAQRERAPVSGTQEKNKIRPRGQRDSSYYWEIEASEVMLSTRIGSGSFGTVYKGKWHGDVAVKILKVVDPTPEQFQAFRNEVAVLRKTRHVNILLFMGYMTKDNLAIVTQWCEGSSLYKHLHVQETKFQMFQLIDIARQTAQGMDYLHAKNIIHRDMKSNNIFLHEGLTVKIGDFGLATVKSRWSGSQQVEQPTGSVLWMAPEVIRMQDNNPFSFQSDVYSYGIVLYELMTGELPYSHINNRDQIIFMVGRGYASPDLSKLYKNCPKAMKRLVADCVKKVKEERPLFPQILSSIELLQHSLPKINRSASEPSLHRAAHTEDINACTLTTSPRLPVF
Sequence of CYP3A4(BFC) (P08684 whole entry): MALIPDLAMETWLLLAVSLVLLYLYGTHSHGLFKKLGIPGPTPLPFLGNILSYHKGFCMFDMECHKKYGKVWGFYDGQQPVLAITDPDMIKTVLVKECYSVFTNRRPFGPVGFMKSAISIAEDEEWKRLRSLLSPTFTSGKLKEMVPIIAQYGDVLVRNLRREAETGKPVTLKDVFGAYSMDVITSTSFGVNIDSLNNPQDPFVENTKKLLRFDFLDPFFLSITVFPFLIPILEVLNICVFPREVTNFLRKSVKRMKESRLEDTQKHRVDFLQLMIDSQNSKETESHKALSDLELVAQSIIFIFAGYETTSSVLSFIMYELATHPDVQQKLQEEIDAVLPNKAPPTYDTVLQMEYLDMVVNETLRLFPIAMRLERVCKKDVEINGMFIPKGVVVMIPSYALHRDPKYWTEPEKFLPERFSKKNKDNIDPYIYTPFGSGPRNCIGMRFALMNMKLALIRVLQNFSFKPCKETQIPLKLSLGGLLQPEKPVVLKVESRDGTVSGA
Sequence of CYP3A4(BQ) (P08684 whole entry): as above
Sequence of CYP2D6 (P10635 whole entry): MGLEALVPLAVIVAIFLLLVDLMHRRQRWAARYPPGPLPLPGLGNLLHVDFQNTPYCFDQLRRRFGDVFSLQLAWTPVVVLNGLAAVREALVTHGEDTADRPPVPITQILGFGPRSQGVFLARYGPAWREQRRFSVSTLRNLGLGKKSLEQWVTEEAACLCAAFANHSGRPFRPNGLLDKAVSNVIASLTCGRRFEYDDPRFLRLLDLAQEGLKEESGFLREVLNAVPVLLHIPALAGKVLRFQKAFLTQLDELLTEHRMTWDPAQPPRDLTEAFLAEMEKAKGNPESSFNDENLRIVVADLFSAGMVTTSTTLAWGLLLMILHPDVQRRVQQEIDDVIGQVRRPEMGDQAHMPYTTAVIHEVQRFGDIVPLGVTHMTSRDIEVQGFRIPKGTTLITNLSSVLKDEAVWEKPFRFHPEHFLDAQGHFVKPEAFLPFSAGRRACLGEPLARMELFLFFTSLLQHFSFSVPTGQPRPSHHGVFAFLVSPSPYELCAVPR
Sequence of CYP2C19 (P33261 whole entry): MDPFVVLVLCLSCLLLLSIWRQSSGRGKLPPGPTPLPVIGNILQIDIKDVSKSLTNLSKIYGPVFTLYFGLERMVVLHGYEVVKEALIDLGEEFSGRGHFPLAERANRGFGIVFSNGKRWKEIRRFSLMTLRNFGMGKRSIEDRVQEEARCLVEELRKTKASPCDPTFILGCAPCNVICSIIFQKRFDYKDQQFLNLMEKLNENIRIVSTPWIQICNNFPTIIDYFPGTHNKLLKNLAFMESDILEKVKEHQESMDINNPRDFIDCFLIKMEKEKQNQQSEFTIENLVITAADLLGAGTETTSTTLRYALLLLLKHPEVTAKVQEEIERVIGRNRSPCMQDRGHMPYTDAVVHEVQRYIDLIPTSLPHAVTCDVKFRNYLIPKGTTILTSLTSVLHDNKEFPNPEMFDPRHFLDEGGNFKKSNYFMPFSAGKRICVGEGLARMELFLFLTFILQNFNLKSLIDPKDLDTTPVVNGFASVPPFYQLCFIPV

On to `CCCS(=O)(=O)Nc1ccc(F)c(C(=O)c2c[nH]c3ncc(-c4ccc(S(=O)(=O)C(C)C)cc4)cc23)c1F` [P-2223, Propane-1-sulfonic acid (2,4-difluoro-3-{5-[4-(propane-2-sulfonyl)-phenyl]-1H-pyrrolo[2,3-b]pyridine-3-carbonyl}-phenyl)-amide], for which the IC50 in series [1] was below 0.01 µM; in [2] it was below 0.01 µM; in series [3], below 0.01 µM; in series [4] it was above 10 µM; in series [5], above 10 µM; in [6], above 10 µM. Further, the IC50 in series [7], in [8] and in [9] was above 10 µM each time.
Turning to `CCCS(=O)(=O)Nc1ccc(F)c(C(=O)c2c[nH]c3ncc(-c4cnc(OCCCN(C)C)nc4)cc23)c1F` [P-2203, Propane-1-sulfonic acid (3-{5-[2-(3-dimethylamino-propoxy)-pyrimidin-5-yl]-1H-pyrrolo[2,3-b]pyridine-3-carbonyl}-2,4-difluoro-phenyl)-amide], the concentration for half-maximal inhibition (IC50) in [1] is below 0.01 µM; in series [2] it was below 0.01 µM; in series [10] it was above 10 µM; in series [11] it was below 1 µM.
Regarding `N#Cc1cnc2[nH]cc(C(=O)c3cccc(NS(=O)(=O)c4cccnc4)c3F)c2c1` [P-2086, Pyridine-3-sulfonic acid [3-(5-cyano-1H-pyrrolo[2,3-b]pyridine-3-carbonyl)-2-fluoro-phenyl]-amide], the IC50 is above 10 µM in series [10], below 10 µM in series [11] and above 10 µM in [12]. Further, the “turbidity threshold (L, M, H) 7.4” value in [13] (HEPES pH 7.4) is recorded as “H (high solubility if the threshold concentration is >250 μM)”. Besides, in series [13] (SIF pH 4.5), the “turbidity threshold (L, M, H) 4.5” value is “M (moderate solubility if the threshold concentration is 31.3 μM to 250 μM)”. The “turbidity threshold (L, M, H) 6.8” value in series [13] (SIF pH 6.8) is “M (moderate solubility if the threshold concentration is 31.3 μM to 250 μM)”. For the same compound, in series [13] (buffer pH 1.4 (SGF)), the “turbidity threshold (L, M, H) 1.4” value is “M (moderate solubility if the threshold concentration is 31.3 μM to 250 μM)”.
